According to publication PMC12119673, “Apoptotic cell death induced by copper (II), manganese (II) and silver (I) complexes containing bridging dicarboxylate and 1,10-phenanthroline ligands: one of the multi-modes of anticancer activity?” (Biometals, 2025):
Read-outs that look alike come from different tables or passages of the source.

What was measured:
Type in all cases: cell-based, human
[1] = test system: apoptotic genes in MCF-7 cells; experiment: Apoptosis-related gene expression, qRT-PCR; conditions: MCF-7, IC25 concentration, 24 h, relative to negative control
Method: (§1) A broad scope of molecular targets involved in the apoptotic pathway were selected for analysis using qRT-PCR including initiators, mediators and inhibitors. These gene targets along with their cellular location and associated primer set are outlined in Table 2. Primer sets for each gene were designed using NCBI nucleotide sequences and the Primer3 application (Table 3). Once designed, the primers were synthesised by Sigma Aldrich, Ireland.
(§2) MCF-7 and MCF-12A cells were seeded at a density of 1 × 10^5 in T25 flasks and incubated for 24 h allowing for attachment. Following incubation, the seeding media was removed, and the cells were washed with PBS. […] Post-exposure, RNA was isolated from the cells. Tri-reagent^Ⓡ (Sigma, Ireland) (Cat# T9424) was added to the cells followed by centrifugation at 300 g for 5 min. The RNA was precipitated using chloroform, followed by centrifugation and washing of the pellet using 75% ethanol. The RNA was resuspended in 30 μl of nuclease-free water. The RNA was either used immediately for qRT-PCR or stored at −80 ℃. The RNA from each sample was quantified using the NanoDrop™ 2000 Spectrophotometer (Thermo Fisher Scientific, Ireland). The A260/A230 ratio was measured to ensure the purity of each sample. Prior to cDNA synthesis, all samples were adjusted to a concentration of 100 ng. The RNA was then reverse transcribed into cDNA using the Quanta Biosciences Kit (Quanta Biosciences, USA) (Cat# 95047). Using the SimpliAmp Thermal Cycler (Applied Biosystems; Thermo Fisher Scientific, Ireland), the following settings were applied: 5 min at 22 ℃, 30 min at 42 ℃, 5 min at 85 ℃; samples were then maintained in an indefinite hold at 4 ℃ prior to being used for quantitative real-time PCR. The cDNA templates were amplified and analysed using SYBR™ Green (Fisher Scientific, UK) (Cat#10187094). Using the 7500 fast Real-Time PCR System (Applied Biosystems, USA), the following thermal cycling setting were applied for amplification: Pre-Incubation (1 cycle) 95 ℃, 5 Minutes, 4.4 ℃ ramp; Amplification (45 cycles) 95 °C 10 s ramp 4.4 °C, 60 °C 10 s ramp 2.2 °C, 72 °C 10 s ramp 4.4 °C; Melting Curve (1 cycle) 95 °C 5 s ramp 4.4 °C, 65 °C 1 min ramp 2.2 °C, 97 °C continuous ramp 0.11 °C acquisition 10 per °C; Cooling (1 cycle) 40 °C 10 s ramp 1.5 °C. Two reference genes, actin and tubulin, were employed to determine the expression of the target genes. No template controls were included to confirm the absence of template contamination and auto-fluorescence. Each PCR plate contained three technical replicates per sample and gene target, with each experiment repeated three independent times using three individual biological replicates.
(§3) qRT-PCR data was analysed by first using the Vandesompele method to calculate the geometric mean of Ct values for the reference genes, actin and tubulin. These values were used for normalisation of the target gene expression values which were then calculated using the Livak and Schmittgen formula: 2^−ΔCt1(test)−ΔCt2(control) (Livak and Schmittgen [2001]; Vandesompele et al. [2002]).
(§4) The expression profiles (Fig. 4) display the log(2) transformed mean expression value for each gene target relative to the negative control. Expression values for each target were determined relative to the geometric means of reference genes. […] Each graph contains a threshold line, set at the value of one, this represents baseline expression levels of genes.

[2] = test system: apoptotic genes in MCF-12A cells; experiment: Apoptosis-related gene expression, qRT-PCR; conditions: IC25 concentration, 24 h, relative to negative control
Method: as §1, §2, §3, §4

[3] = test system: caspase-3/7 in MCF-7 cells; experiment: Caspase 3/7 expression, FLICA (FAM-DEVD-FMK) flow cytometry; conditions: MCF-7, IC25 concentration, 24 h
Method: The expression of caspase-3/7 in MCF-7 and MCF-12A cells was determined using the VybrantTM FAM™ Caspase-3 and Caspase-7 Assay Kit (Cat# V35118) (Thermo Fisher Scientific, Ireland). Cells were seeded at a density of 1 × 10^5 in T25 flasks and incubated in routine conditions for 24 h. […] Post-exposure, the cells were harvested for staining.
(§5) Flow cytometry data analysis was performed with the CytExpert package (Ver. 2.4) (Beckman Coulter, USA) and Microsoft^Ⓡ Excel (USA). The mean MFI and percentage cells were calculated using these packages, followed by one-way ANOVA analysis with post hoc Bonferroni correction using GraphPad Prism (Ver. 9.4) (GraphPad, USA).
The expression of caspase-3/7 was analysed in MCF-7 and MCF-12A cells using fluorescent labelled inhibitors of caspase (FLICA): FAM-DEVD-FMK. […] Following the apoptosis induction study, it was of interest to determine whether the complexes were stimulating the executioner caspases triggering the irreversible proteolytic degradation of cells, culminating in cell death. […] These three complexes were selected based on their structural similarities, while incorporating alternative metal centres.

MCF-12A cells = experiment: In vitro cytotoxicity assessment, alamar blue assay, 24-h exposure
Method: The MCF-7 (human breast cancer) and MCF-12A (non-tumourigenic human breast) cell lines were obtained from the Technological University Dublin (TUDublin, City Campus) internal cell bank and commercially from the American Type Culture Collection (ATCC), respectively. Both cell lines were cultured using Dulbecco’s Modified Eagle Medium/Nutrient Mixture F-12 Ham (DMEM-F12) (Sigma, Ireland) (Cat# D6421) media. The MCF-7 media was supplemented with 10% Foetal Bovine Serum (Sigma, Ireland) (Cat# F7524) and 1% L-Glutamine (Sigma, Ireland) (Cat# 592020C). The MCF-12A media was supplemented with 5% Equine Serum (Sigma, Ireland) (Cat# H0146) 1.25% L-Glutamine (Sigma, Ireland) (Cat# 592020C), 20 ng/ml Human Epidermal Growth Factor (Thermo Fisher Scientific, Ireland) (Cat# PHG0313), 0.01 mg/ml insulin (Thermo Fisher Scientific, Ireland)(Cat# 12585014) and 500 ng/ml hydrocortisone (Sigma, Ireland) (Cat# H0888). The cells were grown in T75 culture flasks (Sarstedt, Germany) (Cat# 83.3911.002) and were incubated in a 5% CO2 atmosphere at 37 ℃. The cells were monitored daily, and once 80–90% confluence was reached, they were subcultured with an enzymatic dissociation method using trypsin. Both cell lines were routinely subcultured for 1 week prior to beginning experimental work, to ensure the cells had adapted to the environment.
The MCF-7 and MCF-12A cells were seeded at a density of 1 × 10^4 in 96-well flat bottom plates (Sarstedt, Germany) (Cat# 83.3924) and incubated in a 5% CO2 atmosphere at 37 ℃ for 24 h prior to exposure to the complexes. Following the incubation period, the media was removed, and cells were washed with sterile phosphate-buffered saline (PBS). […] All agents were diluted in supplemented cell culture media, and the cells were exposed to a concentration range of 0.5 μM–100 μM for 24 h in the conditions outlined previously. Following the exposure period, the drug-containing media was removed, and cells were washed three times with PBS, ensuring complete removal of the test agents. A 5% working solution of Alamar Blue (Thermo Fisher Scientific, Ireland) (Cat# DAL1100) was prepared in dark conditions using unsupplemented cell culture media. 100 μl of the solution was added to each well, and the cells were incubated for 3 h. Following incubation, absorbance values were obtained using a Varioskan Lux (Thermo Scientific, USA) at 570 nm and 600 nm wavelengths. Each exposure was carried out in triplicate plates and was repeated three independent times.
The software packages Microsoft^Ⓡ Excel (USA) and GraphPad Prism (Ver. 10.0.3) (GraphPad, USA) were used to analyse the alamar blue data. The treated sample values were first normalised to the negative control values. After normalisation, the mean and standard deviations (SD) were established using Microsoft^Ⓡ Excel. The statistical analysis package GraphPad was then used to determine the IC25 and IC50 concentrations. […] A p value of 0.05 or lower is considered to be statistically significant.

MCF-7 cells [4] = experiment: as above
Method: The MCF-7 (human breast cancer) and MCF-12A (non-tumourigenic human breast) cell lines were obtained from the Technological University Dublin (TUDublin, City Campus) internal cell bank and commercially from the American Type Culture Collection (ATCC), respectively. Both cell lines were cultured using Dulbecco’s Modified Eagle Medium/Nutrient Mixture F-12 Ham (DMEM-F12) (Sigma, Ireland) (Cat# D6421) media. The MCF-7 media was supplemented with 10% Foetal Bovine Serum (Sigma, Ireland) (Cat# F7524) and 1% L-Glutamine (Sigma, Ireland) (Cat# 592020C). The MCF-12A media was supplemented with 5% Equine Serum (Sigma, Ireland) (Cat# H0146) 1.25% L-Glutamine (Sigma, Ireland) (Cat# 592020C), 20 ng/ml Human Epidermal Growth Factor (Thermo Fisher Scientific, Ireland) (Cat# PHG0313), 0.01 mg/ml insulin (Thermo Fisher Scientific, Ireland)(Cat# 12585014) and 500 ng/ml hydrocortisone (Sigma, Ireland) (Cat# H0888). The cells were grown in T75 culture flasks (Sarstedt, Germany) (Cat# 83.3911.002) and were incubated in a 5% CO2 atmosphere at 37 ℃. […] Following the incubation period, the media was removed, and cells were washed with sterile phosphate-buffered saline (PBS). […] Following the exposure period, the drug-containing media was removed, and cells were washed three times with PBS, ensuring complete removal of the test agents. A 5% working solution of Alamar Blue (Thermo Fisher Scientific, Ireland) (Cat# DAL1100) was prepared in dark conditions using unsupplemented cell culture media. 100 μl of the solution was added to each well, and the cells were incubated for 3 h. […] Each exposure was carried out in triplicate plates and was repeated three independent times. The software packages Microsoft^Ⓡ Excel (USA) and GraphPad Prism (Ver. 10.0.3) (GraphPad, USA) were used to analyse the alamar blue data. The treated sample values were first normalised to the negative control values. After normalisation, the mean and standard deviations (SD) were established using Microsoft^Ⓡ Excel. The statistical analysis package GraphPad was then used to determine the IC25 and IC50 concentrations.

MCF-7 cells [5] = experiment: Apoptosis induction, Annexin V / propidium iodide flow cytometry; conditions: MCF-7, IC25 concentration, 24 h
Method: MCF-7 and MCF-12A cells were seeded at a density of 1 × 10^5 in T25 flasks (Sarstedt, Germany) and incubated for 24 h at 37 °C with 5% CO2 allowing for attachment. Post -incubation, the media was removed, cells were washed with sterile PBS and then treated using IC25 concentrations established from the in vitro cytotoxicity screen. […] After the exposure period, the cells were enzymatically detached using trypsin, collected and centrifuged at 1200RPM for 10 min. The cells were then washed with PBS, re-centrifuged and resuspended in 1 ml of annexin binding buffer. Prior to staining, the concentration of each sample was adjusted to 1 × 10^6 cells/ml. The cells were stained with 1 μl of propidium iodide (PI) (Sigma, Ireland) (Cat #P4864) and 2 μl of Annexin V (Thermo Fisher Scientific, Ireland) (Cat #A13199). The cells were incubated at room temperature for 15 min prior to analysis. The staining process was completed in the dark to eliminate interference with photo-sensitive reagents. Immediately prior to analysis by flow cytometry, 400 μl of annexin binding buffer was added to each sample. Samples were analysed using a (CytoFLEX) (Beckman Coulter, USA). The AV/PI assay was completed three independent times.
as §5
The induction of apoptosis was analysed in MCF-7 and MCF-12A cells using the Annexin V and Propidium Iodide assay with flow cytometry. […] The assay allows for the differentiation of viable, apoptotic and necrotic cells based on the selective staining of Annexin V and PI. Annexin V binds to phosphatidylserines externalised to the outer leaflet of the plasma membrane during apoptosis; and PI is a membrane impermeable dye that binds to DNA of necrotic cells with compromised plasma membranes.

[6] = MCF-12A, 24-hour exposure, per one metal centre, mean ± S.D. (N=3)
[7] = MCF-12A, 24-hour exposure, per one metal centre, mean ± S.D. (N=3), read-out: IC50 calculated per one metal centre
[8] = MCF-7, 24-hour exposure, per one metal centre, mean ± S.D. (N=3)
[9] = MCF-7, 24-hour exposure, per one metal centre, mean ± S.D. (N=3), read-out: IC50 calculated per one metal centre
[10] = MCF-12A, 24-h exposure, 25% reduction in metabolic activity, mean ± SD (N = 3)
[11] = MCF-7, 24-h exposure, 25% reduction in metabolic activity, mean ± SD (N = 3)

N.N.[Cl][Pt][Cl] [Cisplatin, reference compound]
Caspase gene expression (caspase-9, -8, -3) [1]: all caspases seen to be activated | Pro-apoptotic gene expression (BID, BIM, BAD, BAX) [1]: pro-apoptotic BIM and BAD were upregulated | Caspase gene expression (caspase-9, -8, -3) [2]: all caspases seen to be activated | Pro-apoptotic gene expression (BID, BIM, BAD, BAX) [2]: pro-apoptotic BIM and BAD were upregulated | Expression of caspase-3/7 (% cells) [3]: lowest expression levels

O=C([O-])CCCCCCC(=O)[O-].O=C([O-])CCCCCCC(=O)[O-].[Cu+2].[Cu+2] [Complex 3, [Cu2(oda)2]]
Cytotoxic activity IC25 ± SD (MCF-12A cells): > 100 µM | IC50 (MCF-12A cells): > 100 µM | IC25 calculated per one metal centre (MCF-12A cells; [6]): >100  µM | IC50 (MCF-12A cells; [7]): > 100 µM | Cytotoxic activity IC25 ± SD (MCF-7 cells [4]): > 100 µM | IC50 (MCF-7 cells [4]): > 100 µM | IC25 calculated per one metal centre (MCF-7 cells [4]; [8]): >100  µM | IC50 (MCF-7 cells [4]; [9]): > 100 µM

O=C([O-])CCCCCCC(=O)[O-].[Ag+].[Ag+] [Complex 6, [Ag2(oda)]]
Cytotoxic activity IC25 ± SD (MCF-12A cells; [10]): 6.43 ± 4.9 µM | IC25 calculated per one metal centre (MCF-12A cells; [6]): 12.86 ± 9.80 µM | Decrease in toxicity compared to phen-containing complex 4 (MCF-7 cells [4]; Ag(I) pre-cursor vs complex 4): approximately twofold | Decrease in toxicity compared to phen-containing complex 5 (MCF-7 cells [4]; Ag(I) pre-cursor vs complex 5): ~3.5 fold | Cytotoxic activity IC25 ± SD (MCF-7 cells [4]; [11]): 13.90 ± 2.93 µM | IC25 calculated per one metal centre (MCF-7 cells [4]; [8]): 27.80 ± 5.86 µM | Necrotic population (% cells) (MCF-7 cells [5]): high necrotic populations

O.O=C([O-])CCCCCCC(=O)[O-].[Mn+2] [Complex 8, [Mn(oda)]⋅H2O]
Cytotoxic activity IC25 ± SD (MCF-12A cells; [10]): > 100 µM | IC50 (MCF-12A cells; MCF-12A, 24-h exposure, 50% reduction in metabolic activity, mean ± SD (N = 3), read-out: Cytotoxic activity IC50 ± SD): > 100 µM | IC25 calculated per one metal centre (MCF-12A cells; [6]): >100  µM | IC50 (MCF-12A cells; [7]): > 100 µM | Cytotoxic activity IC25 ± SD (MCF-7 cells [4]; [11]): > 100 µM | IC50 (MCF-7 cells [4]; MCF-7, 24-h exposure, 50% reduction in metabolic activity, mean ± SD (N = 3), read-out: Cytotoxic activity IC50 ± SD): > 100 µM | IC25 calculated per one metal centre (MCF-7 cells [4]; [8]): >100  µM | IC50 (MCF-7 cells [4]; [9]): > 100 µM
